Test results reported in ChEMBL document CHEMBL3997794, “Design and synthesis of benzodiazepine analogs as isoform-selective human lysine deacetylase inhibitors” (Eur J Med Chem, 2017).

Legend:
[1] = molecular target: T1, Histone deacetylase 8 (Homo sapiens, UniProt Q9BY41); test: Inhibition of human KDAC8 after 60 mins by fluorescence assay
T1 sequence (Q9BY41 whole entry): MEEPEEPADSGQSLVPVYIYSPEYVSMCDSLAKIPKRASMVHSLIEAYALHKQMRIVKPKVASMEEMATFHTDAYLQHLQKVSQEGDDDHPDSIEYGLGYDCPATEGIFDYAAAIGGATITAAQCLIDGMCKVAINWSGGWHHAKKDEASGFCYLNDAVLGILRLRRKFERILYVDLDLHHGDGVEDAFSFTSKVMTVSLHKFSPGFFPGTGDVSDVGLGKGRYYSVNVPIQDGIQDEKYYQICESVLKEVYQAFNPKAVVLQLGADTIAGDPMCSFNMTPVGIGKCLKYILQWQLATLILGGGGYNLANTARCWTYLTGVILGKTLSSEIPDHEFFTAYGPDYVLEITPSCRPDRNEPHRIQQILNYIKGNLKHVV

[2] = molecular target: T2, Protein deacetylase HDAC6 (Homo sapiens, UniProt Q9UBN7); test: Inhibition of human KDAC6 using FITC-labeled histone H4 acetylated peptide as substrate after 60 mins by fluorescence assay
T2 sequence (Q9UBN7 whole entry): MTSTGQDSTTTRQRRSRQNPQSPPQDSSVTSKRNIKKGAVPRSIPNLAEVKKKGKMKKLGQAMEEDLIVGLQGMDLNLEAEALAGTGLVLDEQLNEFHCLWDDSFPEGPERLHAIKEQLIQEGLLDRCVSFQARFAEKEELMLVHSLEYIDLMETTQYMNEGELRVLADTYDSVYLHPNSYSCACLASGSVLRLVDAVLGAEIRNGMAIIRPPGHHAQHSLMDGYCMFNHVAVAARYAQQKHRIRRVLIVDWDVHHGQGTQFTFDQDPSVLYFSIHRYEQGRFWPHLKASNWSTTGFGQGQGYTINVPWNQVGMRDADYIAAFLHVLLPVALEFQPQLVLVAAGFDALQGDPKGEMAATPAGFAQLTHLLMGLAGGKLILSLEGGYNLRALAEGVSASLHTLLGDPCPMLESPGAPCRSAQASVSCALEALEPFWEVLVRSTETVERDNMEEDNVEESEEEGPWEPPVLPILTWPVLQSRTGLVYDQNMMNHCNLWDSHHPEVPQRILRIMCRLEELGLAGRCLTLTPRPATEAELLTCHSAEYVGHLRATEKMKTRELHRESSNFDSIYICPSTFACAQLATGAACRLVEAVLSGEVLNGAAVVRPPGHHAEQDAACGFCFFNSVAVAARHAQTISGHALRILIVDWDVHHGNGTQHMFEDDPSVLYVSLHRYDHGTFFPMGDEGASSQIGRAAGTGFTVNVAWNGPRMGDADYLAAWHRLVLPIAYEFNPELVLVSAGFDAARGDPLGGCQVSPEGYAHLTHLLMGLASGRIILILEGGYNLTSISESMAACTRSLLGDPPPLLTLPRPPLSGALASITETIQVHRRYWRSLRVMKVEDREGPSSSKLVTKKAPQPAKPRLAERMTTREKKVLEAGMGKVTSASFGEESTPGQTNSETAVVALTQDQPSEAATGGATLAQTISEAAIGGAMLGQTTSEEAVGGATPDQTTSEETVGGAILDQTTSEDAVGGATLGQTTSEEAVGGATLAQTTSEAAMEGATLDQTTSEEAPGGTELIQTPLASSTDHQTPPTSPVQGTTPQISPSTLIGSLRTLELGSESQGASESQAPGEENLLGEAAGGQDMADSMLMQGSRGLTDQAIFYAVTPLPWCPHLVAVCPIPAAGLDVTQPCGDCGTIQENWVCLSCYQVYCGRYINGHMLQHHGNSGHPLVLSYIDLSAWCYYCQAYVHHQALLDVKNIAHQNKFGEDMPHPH

[3] = molecular target: T3, Histone deacetylase 3 (Homo sapiens, UniProt O15379); test: Inhibition of human KDAC3 using FITC-labeled p53 acetylated peptide as substrate after 60 mins by fluorescence assay
[4] = molecular target: T4, Histone deacetylase 1 (Homo sapiens, UniProt Q13547); test: Inhibition of human KDAC1 using substrate A after 60 mins by fluorescence assay
[5] = molecular target: T5, Histone deacetylase 8 (Homo sapiens) (UniProt Q9BY41); test: Inhibition of human KDAC8 at 30 uM after 60 mins by fluorescence assay relative to control
T5 sequence (whole entry): T1 sequence (Q9BY41 whole entry)

[6] = molecular target: T3, Histone deacetylase 3; test: Inhibition of human KDAC3 at 30 uM using FITC-labeled p53 acetylated peptide as substrate after 60 mins by fluorescence assay relative to control
[7] = molecular target: T4, Histone deacetylase 1; test: Inhibition of human KDAC1 at 30 uM using substrate A after 60 mins by fluorescence assay relative to control
[8] = molecular target: T6, Protein deacetylase HDAC6 (Homo sapiens) (UniProt Q9UBN7); details: at 30 µM
T6 sequence (whole entry): T2 sequence (Q9UBN7 whole entry)
Description: Inhibition of human KDAC6 at 30 uM using FITC-labeled histone H4 acetylated peptide as substrate after 60 mins by fluorescence assay relative to control

T4 sequence (Q13547 whole entry): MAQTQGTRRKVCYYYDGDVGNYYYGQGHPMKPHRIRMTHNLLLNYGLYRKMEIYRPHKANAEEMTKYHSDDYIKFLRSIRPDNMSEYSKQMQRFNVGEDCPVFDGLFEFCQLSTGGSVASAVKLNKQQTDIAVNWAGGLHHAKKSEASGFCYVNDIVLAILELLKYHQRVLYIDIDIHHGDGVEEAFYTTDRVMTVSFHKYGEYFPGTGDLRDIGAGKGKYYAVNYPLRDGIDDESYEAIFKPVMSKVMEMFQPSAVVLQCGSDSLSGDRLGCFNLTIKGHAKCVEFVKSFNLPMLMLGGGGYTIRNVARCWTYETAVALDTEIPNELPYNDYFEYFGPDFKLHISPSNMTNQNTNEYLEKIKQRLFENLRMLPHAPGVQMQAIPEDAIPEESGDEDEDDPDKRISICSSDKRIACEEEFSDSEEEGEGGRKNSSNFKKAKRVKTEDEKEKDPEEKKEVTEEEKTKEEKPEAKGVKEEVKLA
T3 sequence (O15379 whole entry): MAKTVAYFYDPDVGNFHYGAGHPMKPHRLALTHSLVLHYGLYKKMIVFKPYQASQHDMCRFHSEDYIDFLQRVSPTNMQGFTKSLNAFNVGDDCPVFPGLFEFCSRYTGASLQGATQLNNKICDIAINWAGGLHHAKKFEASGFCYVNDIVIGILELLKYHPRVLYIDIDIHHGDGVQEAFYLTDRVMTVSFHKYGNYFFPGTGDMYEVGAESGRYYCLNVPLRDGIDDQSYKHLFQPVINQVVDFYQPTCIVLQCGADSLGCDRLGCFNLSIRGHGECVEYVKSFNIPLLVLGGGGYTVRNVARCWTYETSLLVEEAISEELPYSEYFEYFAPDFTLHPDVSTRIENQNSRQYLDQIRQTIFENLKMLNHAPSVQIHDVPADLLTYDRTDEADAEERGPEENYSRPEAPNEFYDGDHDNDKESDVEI

O=C(CCCNC(=O)C[C@@H]1N=C(c2ccccc2)c2ccccc2NC1=O)NO
IC50 [1]: > 30 µM
IC50 [2]: 1.76 µM
IC50 [3]: 3.21 µM
IC50 [4]: 17.4 µM
inhibition [5]: 45.1%
inhibition [6]: 90.7%
inhibition [7]: 63.5%
inhibition [8]: 95%

COC(=O)CCCCN1C(=O)[C@H](COC(C)(C)C)N=C(c2ccccc2)c2ccccc21
IC50 [1]: > 30 µM
IC50 [2]: > 30 µM
IC50 [3]: > 30 µM
IC50 [4]: > 30 µM
inhibition [5]: 5%
inhibition [6]: 0%
inhibition [7]: 0.36%
inhibition [8]: 0%

N=C(N)NCCC[C@@H]1N=C(c2ccccc2)c2ccccc2N(CCCCC(=O)NO)C1=O
IC50 [1]: > 30 µM
IC50 [2]: 2.63 µM
IC50 [3]: 0.22 µM
IC50 [4]: 1.44 µM
inhibition [5]: 27.9%
inhibition [6]: 101%
inhibition [7]: 91.8%
inhibition [8]: 91.2%

COC(=O)CCCCN1C(=O)[C@H](C(C)C)N=C(c2ccccc2)c2ccccc21
IC50 [1]: > 30 µM
IC50 [2]: > 30 µM
IC50 [3]: > 30 µM
IC50 [4]: > 30 µM
inhibition [5]: 9.56%
inhibition [6]: 0%
inhibition [7]: 12.5%
inhibition [8]: 0%

O=C1Nc2ccccc2C(c2ccccc2)=N[C@H]1Cc1cn(C(c2ccccc2)(c2ccccc2)c2ccccc2)cn1
IC50 [1]: > 30 µM
IC50 [2]: > 30 µM
IC50 [3]: > 30 µM
IC50 [4]: > 30 µM
inhibition [5]: 13.4%
inhibition [6]: 0%
inhibition [7]: 8.26%
inhibition [8]: 12.3%

CC(C)(C)OC(=O)CC[C@@H]1N=C(c2ccccc2)c2ccccc2NC1=O
IC50 [1]: > 30 µM
IC50 [2]: > 30 µM
IC50 [3]: > 30 µM
IC50 [4]: > 30 µM
inhibition [5]: 1.79%
inhibition [6]: 0%
inhibition [7]: 5.85%
inhibition [8]: 0.01%

O=C(O)C[C@H]1N=C(c2ccccc2)c2ccccc2NC1=O
IC50 [1]: > 30 µM
IC50 [2]: > 30 µM
IC50 [3]: > 30 µM
IC50 [4]: > 30 µM
inhibition [5]: 0%
inhibition [6]: 0%
inhibition [7]: 0.74%
inhibition [8]: 0%

CC(C)(C)SC[C@H]1N=C(c2ccccc2)c2ccccc2NC1=O
IC50 [1]: > 30 µM
IC50 [2]: > 30 µM
IC50 [3]: > 30 µM
IC50 [4]: > 30 µM
inhibition [5]: 16.1%
inhibition [6]: 2.88%
inhibition [7]: 4.1%
inhibition [8]: 2.05%

CC(C)C[C@@H]1N=C(c2ccccc2)c2ccccc2N(CCCCC(=O)O)C1=O
IC50 [1]: > 30 µM
IC50 [2]: > 30 µM
IC50 [3]: > 30 µM
IC50 [4]: > 30 µM
inhibition [5]: 7%
inhibition [6]: 0%
inhibition [7]: 3.1%
inhibition [8]: 0%

COC(=O)CCCCN1C(=O)[C@H](CCCCNC(=O)OC(C)(C)C)N=C(c2ccccc2)c2ccccc21
IC50 [1]: > 30 µM
IC50 [2]: > 30 µM
IC50 [3]: > 30 µM
IC50 [4]: > 30 µM
inhibition [5]: 1.03%
inhibition [6]: 1.96%
inhibition [7]: 8.22%
inhibition [8]: 0%

O=C(O)CC[C@H]1N=C(c2ccccc2)c2ccccc2NC1=O
IC50 [1]: > 30 µM
IC50 [2]: > 30 µM
IC50 [3]: > 30 µM
IC50 [4]: > 30 µM
inhibition [5]: 0%
inhibition [6]: 0%
inhibition [7]: 10.2%
inhibition [8]: 0%

O=C(O)CCCCN1C(=O)[C@H](Cc2ccccc2)N=C(c2ccccc2)c2ccccc21
IC50 [1]: > 30 µM
IC50 [2]: > 30 µM
IC50 [3]: > 30 µM
IC50 [4]: > 30 µM
inhibition [5]: 6.22%
inhibition [6]: 0.91%
inhibition [7]: 11.9%
inhibition [8]: 0%

CC(C)C[C@@H]1N=C(c2ccccc2)c2ccccc2NC1=O
IC50 [1]: > 30 µM
IC50 [2]: > 30 µM
IC50 [3]: > 30 µM
IC50 [4]: > 30 µM
inhibition [5]: 0%
inhibition [6]: 0%
inhibition [7]: 2.85%
inhibition [8]: 5.48%

CC[C@H](C)[C@@H]1N=C(c2ccccc2)c2ccccc2NC1=O
IC50 [1]: > 30 µM
IC50 [2]: > 30 µM
IC50 [3]: > 30 µM
IC50 [4]: > 30 µM
inhibition [5]: 0%
inhibition [6]: 0.56%
inhibition [7]: 6.77%
inhibition [8]: 1.82%
